Reference: publication PMC7064401 (Journal of molecular microbiology and biotechnology, 2019)

Molecular target: BexImpX (Pseudobdellovibrio exovorus, UniProt M4VA25)
Assay: inhibition of riboflavin uptake in E. coli expressing impX, fluorescence
Format: cell-based
Conditions: read-out: % inhibition at 0.9 mM

Row | SMILES | inhibition at 900 µM
1 | NC(=O)c1cccnc1 [nicotinamide] | < 5%
2 | Cc1ncc(C[n+]2csc(CCOP(=O)(O)OP(=O)(O)O)c2C)c(N)n1 [thiamine pyrophosphate] | < 5%
